From patent US11191291B2, “Compositions for taste masking” (International Flavors & Fragrances Inc., priority 2016, dated 2021)

Experiment: Sensory panel ranking of lingering aftertaste masking on a 0-5 scale (Example III)
Type: in vivo
Details: for Masking Effect: scale of 0-5, 0=no masking, 5=very strong masking; for Taste compared with the control: αG SWEET 0.14% solution, water used in control group, concentration series
Protocol: A solution of αG SWEET was prepared in water at a concentration of 0.14%. The Emblica officinalis fruit extract (prepared as above in Example I) containing the mucic acid 2-O-gallate (11.84%) and mucic acid lactone gallate (6.35%) mixture, individual fractions containing each of mucic acid 2-O-gallate, mucic acid lactone gallate, galloyl glucose (prepared in Example I) and mucic acid 3-O-gallate (Quality Phytochemicals, LLC, New Jersey, U.S.) were added to the αG SWEET solution, respectively, to achieve a series of concentrations ranging from about 50-80 ppm for the Emblica officinalis fruit extract; about 5-20 ppm for mucic acid 2-O-gallate; about 5-20 ppm for mucic acid 3-O-gallate; about 2-10 ppm for mucic acid lactone gallate; and about 10-20 ppm for galloyl glucose. Water was used in a control group. Samples were presented in a blind and pseudorandom order to a sensory panel. The lingering aftertaste-masking effect was evaluated by ranking the suppression of bitterness, metallic aftertaste and lingering sweetness on a scale of 0-5, where 0=no masking and 5=very strong masking.

[1] = 20 ppm in αG SWEET 0.14% solution

Compound	Masking Effect [1]	Taste compared with the control	Masking Effect (10 ppm in αG SWEET 0.14% solution)
O=C(OC(C(O)C(=O)O)C(O)C(O)C(=O)O)c1cc(O)c(O)c(O)c1 (centres unmarked) [Mucic Acid 3-O-Gallate, mucic acid 3-O-gallate]	1	tasted considerably less bitter and the lingering metallic off-note was reduced	
O=C(OC(C(=O)O)C(O)C(O)C(O)C(=O)O)c1cc(O)c(O)c(O)c1 (centres unmarked) [Mucic acid 2-O-gallate, mucic acid 2-O-gallate]	1	tasted considerably less bitter and the lingering metallic off-note was reduced	
O=C(OC(C(=O)O)C1OC(=O)C(O)C1O)c1cc(O)c(O)c(O)c1 (centres unmarked) [Mucic acid lactone gallate, mucic acid lactone gallate]		tasted considerably less bitter and the lingering metallic off-note was reduced	2
galloyl glucose [reference compound]	0	very low effect	
